# Data as given in publication PMC8008885 (Journal of Enzyme Inhibition and Medicinal Chemistry, 2021).
# Where two headings read alike, the source gives them in different places.
# How the values were obtained:
# [1] = tested on: HD (Q111/Q111) striatal cells; assay: Confocal microscopy of H3K9me3 immunoreactivity in HD cells; type: cell-based
# Method: Immunofluorescence staining and confocal microscopy was used to determine the trimethylated-histone H3 (Lys9) (H3K9me3) (Millipore, Billerica, MA) (1:1000). The procedures were performed as previously described. The specimens were incubated for 1 h with Alexa Fluor 594 goat anti-rabbit antibody (abcam, Cambridge, UK; 1:400) after incubation of the primary antibody. Images were analysed using an A1 Nikon confocal laser scanning microscope (Nikon, Tokyo, Japan).
# (§1) Moreover, the promoter assay was carried out.
# [2] = Pharmacokinetics after intravenous and oral administration to SD rats; type: in vivo, Sprague-Dawley (SD) male rats; conditions: rat, 10 mg/kg; for Kp at 2 h: brain/plasma, read-out: Brain-to-plasma (B/P) ratio at 2 h; for half-life: read-out: Terminal half-life
# Excerpt: It is well known that the blood–brain barrier (BBB) is a key obstacle impeding the entry of drugs into the brain.
# YAC128 mice [3] = assay: Rotarod test in HD transgenic (YAC128) mice; type: in vivo, mouse; conditions: i.p. five times a week, after 4 weeks, vs vehicle treated YAC128 mice
# Method: (§2) YAC128 mice were bred with females from their background strain (B6CBAFI/J), and offspring were genotyped using PCR as previously described. All mice were weighed at 3 weeks of age and equally distributed according to weight and percentage within each cohort. […] The biochemical and behavioural/neuropathological symptoms of mice were determined after 4 weeks of drug administration. These procedures were performed in accordance with Guide for the Care and Use of Laboratory Animals guidelines. The animal protocol was approved by IACUC (Institutional Animal Care and Use Committee) in Hanyang University, Ansan, Republic of Korea.
# SETDB1 enzyme = SETDB1 enzyme (Homo sapiens, UniProt Q15047); assay: biochemical
# Method: SETDB1 enzyme activity was analysed using commercially available SETBD1 chemiluminescent assay kit (BPS Bioscience, San Diego, CA, #51056) according to the manufacturer’s instructions. All analyses were performed in duplicates and all reagents used are supplied in the kit. […] Total 50 µL mixture of histone methylation transfer buffer (50 mM Tris–HCl, pH 9.0, 1 mM phenylmethylsulfonyl fluoride, and 0.5 mM dithiothreitol) containing 20 µM SAM, each concentration of inhibitors and 1.25 ng/µL SETDB1 enzyme was added to each well of a 96-well plate. The wells were pre-coated with histone H3 peptide substrate. Reactions were allowed to proceed for 1 h 30 min at room temperature. Methylated K9 residue of H3 peptide was detected with anti-methylated H3K9 primary antibody and HRP-conjugated secondary antibody. Chemiluminescence resulting from the reaction between the HRP-conjugated secondary antibody and the added HRP substrate was measured using a SpectraMax M2 plate reader (Molecular Devices, Sunnyvale, CA).
# The inhibitory activity at each concentration was recorded by detecting chemiluminescence signal after treatment of H3K9 antibody followed by addition of the HRP substrate.
# YAC128 mice [4] = assay: Toxicity on administration to YAC128 mice; type: in vivo; conditions: HD transgenic (YAC128) mice
# Method: as §2
# striatum of YAC128 mice = assay: Acid histone extraction and Western blot of H3K9 methylation in the striatum of YAC128 mice; type: in vivo, mouse; conditions: YAC128 mice vs vehicle-treated YAC128 mice
# Method: Cells were homogenised with Dounce homogeniser in […] of phosphate-buffered saline containing 0.4 mM sodium butyrate, 5% Triton X-100, 3 mM DTT, 1 mM sodium orthovanadate, 5 mM sodium fluoride, 3 mM PMSF, 3 mM DTT, 0.5 mg/ml leupeptin, and 10 mg/ml aprotinin as previously described. The nuclear pellets were collected and washed twice with the above-described 5% Triton buffer. Histones were extracted by solubilising in […] of 0.2 M HCl on a shaker for 2 h. After neutralising the pH of the acid-extracted solution containing the histone pool with ammonium acetate, the protein content was quantified. […] After releasing the vacuum, the nitrocellulose membrane was removed and washed twice with TBS-T for 5 min. Then, the nitrocellulose membrane was blocked with 5% milk/TBS-T for 30 min and subsequently incubated with primary antibody in 5% milk/TBS-T for 24 h at cold room. The nitrocellulose membrane was washed twice with TBS-T for 5 min and incubated with secondary antibody in 1% milk (15 ml) for one hour at room temperature. […]
# YAC128 mice were bred with females from their background strain (B6CBAFI/J), and offspring were genotyped using PCR as previously described. […] The biochemical and behavioural/neuropathological symptoms of mice were determined after 4 weeks of drug administration. […]
# [5] = tested on: STHdhQ7/7 (wild type) cells; assay: Cell viability MTT assay; type: cell-based; conditions: 24 h, concentration range 1–100 µM
# Method: Cell viability was quantified using MTT assay (Sigma, St. Louis, MO, M2128). In brief, cells were cultured in each well of 96-well plates with varying concentrations of compounds for 24 h. Following incubation of cells in each well with MTT (0.5 mg/ml) for 4 h, the culture supernatant was discarded. Cells were washed with PBS three times, and the insoluble formazan product dissolved in DMSO. The optical density (OD) of each culture well was measured using as ELISA reader at 570 nm. The OD570 in control cells was taken as 100% viability.
# Next, we evaluated the inhibitory activity of our compound against SETDB1 enzyme by comparing with a well-known methyltransferase inhibitor […] using chemo-luminescence assay (Figure S1a).
# Q111 cells = assay: FRET-based histone H3K9 methylation biosensor live cell imaging
# Method: Fluorescence resonance energy transfer (FRET)-based histone H3K9 methylation biosensor was previously described. In brief, H3K9 biosensor is composed of a methyl-lysine binding domain of HP1 protein and a H3 tail peptide containing lysine9 between ECFP and YPet, and the NLS sequences were added in the C-terminal for the nucleus localisation of the biosensor. For the image acquisition, Q7 or Q111 cells were cultured on cover-glass-bottom dishes and the H3K9 biosensor was transfected into the cells using Lipofectamine 2000 (Invitrogen, Carlsbad, CA) according to the manufacturer’s protocols. Images were collected by a Nikon Ti-E inverted microscope with 420DF20 excitation filter, 450DRLP dichroic mirror, and two emission filters (475DF40 for ECFP and 535DF25 for YPet) controlled by a filter changer. Image analysis was performed using NIS element-AR software. Nucleus regions were selected as the regions of interests and the emission ratio of ECFP and YPet was calculated after background subtraction. The colour of each pixel was determined by the ECFP/YPet ratio value.
# as §1
# [6] = male, Sprague-Dawley, plasma, intravenous
# [7] = male, Sprague-Dawley, plasma, oral
# [8] = male, Sprague-Dawley, intravenous, plasma
# [9] = male, Sprague-Dawley, oral, plasma
smiles,measurement,setting,value
"C=CCOc1cccc2nc(N3CCCC3)ccc12 [APQ, 5-allyloxy-2-(pyrrolidin-1-yl)quinoline]",H3K9me3 immunoreactivity,[1],considerably decreased
same,Kp at 2 h,"[2]; male, Sprague-Dawley, intravenous",4.18
same,Kp at 2 h,"[2]; male, Sprague-Dawley, oral",0.44
same,concentration at 2 h,"[2]; male, Sprague-Dawley, brain, intravenous, read-out: Brain concentration at 2 h",407 ng/mL
same,concentration at 2 h,"[2]; male, Sprague-Dawley, brain, oral, read-out: Brain concentration at 2 h",3.7 ± 1.1 ng/mL
same,MRT,[2]; [6],1.6 h
same,clearance,[2]; [6],183 ± 26.1 mL/min/kg
same,concentration at 8 h,[2]; [6],20 ng/mL
same,concentration at 2 h,"[2]; male, Sprague-Dawley, plasma, intravenous, read-out: Plasma concentration at 2 h",100 ng/mL
same,half-life,[2]; [6],2.55 ± 0.101 h
same,Vd,"[2]; male, Sprague-Dawley, plasma, intravenous, read-out: Vss",25.6 ± 5.2 L/kg
same,bioavailability,"[2]; male, Sprague-Dawley, plasma, oral vs intravenous, read-out: F (bioavailability)",6.7%
same,Cmax,[2]; [7],40 ± 10 ng/mL
same,concentration at 8 h,[2]; [7],0 ng/mL
same,Tmax,"[2]; male, Sprague-Dawley, plasma, oral, median (range)",1 h
same,concentration at 2 h,"[2]; male, Sprague-Dawley, plasma, oral, read-out: Plasma concentration at 2 h",10 ng/mL
same,half-life,[2]; [7],1.58 ± 0.223 h
same,AUC(0-inf),[2]; [8],923 ng·h/mL
same,AUC(0-t),[2]; [8],858 ng·h/mL
same,AUC(0-inf),[2]; [9],61.7 ng·h/mL
same,AUC(0-t),[2]; [9],60.7 ng·h/mL
same,Ae (excreted amount),[2]; intravenous,0.00%
same,Brain concentration at 2 h,[2]; intravenous,406.6 ± 81.3 ng/mL
same,Plasma concentration at 2 h,[2]; intravenous,100 ± 10 ng/mL
same,Ae (excreted amount),[2]; oral,0.00%
same,motor behaviour (rotarod test),YAC128 mice [3],significantly improved
same,IC50,SETDB1 enzyme,65 µM
same,toxicity,YAC128 mice [4],minimal toxicity
same,"H3K9me3, H3K9me1 and H3K9me2 levels in the striatum (Western blot)",striatum of YAC128 mice,selectively decreased H3K9me3 levels but not H3K9me1 or H3K9me2 levels
same,"cytotoxicity (cell viability, MTT)",[5],did not show any cytotoxicity
same,FRET/ECFP ratios of H3K9 methylation,Q111 cells,effectively modulates
